Measurements as given in article PMC11323312, “Structural response of G protein binding to the cyclodepsipeptide inhibitor FR900359 probed by NMR spectroscopy” (Chemical Science, 2024).
Starred links: 1 amine or outer side, 2 acyl side, 3 side chain; linkers in the order of their positions; H or OH if unused. Positions of bridges follow the written chain, without caps; N, C: chain ends. Non-standard residues stand in square brackets, D forms with d. Residues, ends and D or L forms follow the SMILES beside them. *: point of attachment. Leu(3R-OH,Nα-propionyl) = CCC(=O)N[C@H](C(=O)*)[C@H](O)C(C)C; X1 = CC(C)[C@@H](O[*:3])[C@H](N[*:1])C(=O)[*:2]; NMeT = CN[C@H](C(=O)O)[C@@H](C)O; dPhLac = O=C(O)[C@H](O)Cc1ccccc1; NMeA = CN[C@@H](C)C(=O)O; NMeDha = C=C(NC)C(=O)O

Assays:
Gαi/q = test: Structural response to inhibitor binding by DNP-enhanced ssNMR (13C-NCOCX, unique pair labeling); conditions: inhibitor : protein 1.5 : 1, 4 °C overnight, nominal 105 K
Protocol: The protein response to inhibitor binding was studied by HNCO(CX) experiments with 20 ms mixing time recorded on DNP samples of frozen Gαi/q protein solution. The polarizing agent AsymPolPOK[36] was dried from a chloroform : methanol (1 : 1) stock solution to form a film that was resuspended with 1 mg of protein solution that was concentrated to a volume of 15 μL, subsequently 15 μL of d8-glycerol was added. The final concentration of radical in the mixture with the protein sample in the 3.2 mm NMR rotor was 10 mM. The samples were measured at a DNP setup consisting of a 400 MHz Avance Neo spectrometer (Bruker) with a 3.2 mm Cryo MAS HCN probe (Bruker) and a 263 GHz Gyrotron as microwave source. All experiments were done at a nominal temperature of 105 K. A MAS rate of 8 kHz and proton decoupling of 100 kHz were chosen. To investigate the effects of inhibitor binding, the protein solution was incubated with unlabeled FR or YM from a 10 mM DMSO stock solution at an inhibitor to protein molar ratio of 1.5 : 1 at 4 °C overnight. To study the effects of nucleotide binding, 5 μL of GDP was added to the samples from a 17 mM solution of GDP : MgCl2 (3 : 1 molar ratio) directly into the rotor. The GTP-bound state was generated by subsequent addition of 2 μL of GTP [0.1 M] and 2 μL AlF4 salt solution (150 mM MgCl2, 75 mM NaF, 15 mM AlCl3). DNP enhancement was measured by comparison of ^13C-CP spectra with and without microwave irradiation. Referencing was done indirectly using the right peak of d8-glycerol at 64.78 ppm.
In order to collect information about conformational changes in a spatially resolved manner, a unique pair labeling approach was chosen,[50] resulting in signals in the NMR spectra from a unique pair of neighboring amino acids in NCO type experiments. […] To obtain sufficient signal intensity in the experiments, spectra were recorded using DNP-enhanced ssNMR. […] Under those conditions, the full sampled conformational space is conserved and reflected in NMR line shapes, which can then be analyzed. […]

[1] = target: T1, chimeric Gαi/q protein (FR-sensitive Gαi mutant) (Homo sapiens, UniProt P63096, H188P/K180P/K54R/T187Y/V185I/V50I/V72L/Y69F); test: Radioligand binding ([3H]PSB-15900 homologous competition, filtration assay); conditions: chimeric Gαi/q on TALON beads, 5 μg protein; [3H]PSB-15900 5 nM; unlabeled FR 0.003-30 μM; 2 h, 4 °C; 50 mM Tris-HCl pH 7.4; one-site homologous equation; mean ± SD of 3 independent experiments in duplicates
T1 construct: made in house; host or cells: E. coli (pET16b)
Protocol: The purified chimeric Gαi/q protein was preincubated with TALON immobilized metal affinity chromatography (IMAC) resin beads (Takara Bio) for 1–2 h at 4 °C with gentle shaking (0.025 μL beads per 0.1 mL of protein solution in 50 mM Tris–HCl, pH 7.4; final protein amount per sample: 5 μg). Each sample contained 70 μL of assay buffer (50 mM Tris–HCl, pH 7.4), 5 μL of dimethyl sulfoxide (DMSO) or the test compound (dissolved in DMSO), 50 μL of [^3H]PSB-15900 (FR-derived radioligand; 28 Ci/mmol; Pharmaron, Cardiff, UK)[14] in assay buffer (final concentration: 5 nM) and 125 μL of protein solution. Total binding of [^3H]PSB-15900 was determined using 5 μL of DMSO, and non-specific binding was determined using 5 μL of unlabeled FR900359 (final concentration: 5 μM). For competition binding experiments, dilutions from 30 μM to 0.003 μM of unlabeled FR900359, dissolved in DMSO, were added. Incubation was performed for 2 h at 4 °C with gentle shaking. […]
Multiple regions of the protein are either directly involved in binding of cyclodepsipeptide inhibitors, as shown by structural data on bound YM,[23] or show an indirect response to binding of the inhibitor, as proposed by MD simulations.[13,25] To investigate the conformational response of the G protein to inhibitor binding, structural alterations of the G protein itself must be detected. […]

T1 sequence (P63096 whole entry V50I/K54R/Y69F/V72L/K180P/V185I/T187Y/H188P): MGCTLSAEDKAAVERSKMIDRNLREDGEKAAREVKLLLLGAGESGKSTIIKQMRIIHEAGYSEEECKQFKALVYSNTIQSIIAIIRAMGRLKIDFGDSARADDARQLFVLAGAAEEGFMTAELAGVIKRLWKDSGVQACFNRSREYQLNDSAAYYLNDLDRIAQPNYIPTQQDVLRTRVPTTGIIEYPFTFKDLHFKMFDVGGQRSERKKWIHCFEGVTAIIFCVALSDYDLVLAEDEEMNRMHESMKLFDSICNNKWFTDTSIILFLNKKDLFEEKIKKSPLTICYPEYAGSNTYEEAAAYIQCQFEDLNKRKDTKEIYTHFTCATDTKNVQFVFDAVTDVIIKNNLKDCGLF

Compound	response of switch III (R242-M243) to inhibitor binding (Gαi/q; RM-pair)	response of α5 helix (V335-F336) to inhibitor binding (Gαi/q; VF-pair)	response of switch I (V179-P180) to inhibitor binding (Gαi/q; VP-pair)	Kd [1]
YM-254890	no effects in switch III	minor effects	clear narrowing of the ^13C valine signals	
C=C1C(=O)N[C@@H](C)C(=O)N(C)[C@@H](C)C(=O)N[C@@H]([C@H](OC(=O)[C@@H](NC(=O)CC)[C@H](O)C(C)C)C(C)C)C(=O)N(C)[C@@H]([C@@H](C)OC)C(=O)O[C@H](C(C)C)[C@H](NC(C)=O)C(=O)O[C@H](Cc2ccccc2)C(=O)N1C [FR, FR900359] (Ac-[X1][dPhLac][NMeDha]A[NMeA][X1](Leu(3R-OH,Nα-propionyl))[NMeT](Me); ester 1-C)				271 ± 69 nM
